Structures can show the parent of a compound that is named as a salt. Values belong to the compound of their own block, whether it stands above or below them.
Tests used:
[1] = Merckoquant peroxide test (ppm of H2O2) during storage at room temperature; details: for stabilizing effect: 0.05% by weight of the antioxidant; for stabilization of the glycerol monoalkyl ethers over a long period (peroxides, neck-in effect): added to Sensiva SC 50, storage at room temperature, Table 1; for ppm of H2O2: storage at room temperature
Description: The data in “ppm of H2O2” refer to the peroxide determination using Merckoquant® peroxide test analysis strips. This semiquantitative method for determining peroxide was carried out as follows: • About 0.5 g of the sample to be investigated is placed in a test tube and treated with the same amount of demineralized water. The two phases are mixed by shaking, and a Merckoquant® peroxide test analysis strip is dipped in for one second. The damp strip is removed from the liquid and the peroxide content is read off after 15 seconds using the reference scale and noted. If the peroxide content is too high, the amount is doubled with demineralized water, again shaken etc., until a reading is possible using the reference scale. The value obtained is back-calculated using the dilution.
(§2) Following preparation of the samples, the value for ppm of H2O2 and the pH were determined at regular intervals.

[2] = pH of 50% strength slurry in demineralized water, Merck pH indicator strips; format: physicochemical; details: storage at room temperature
Text: The pH of the anhydrous solutions is given as the value which a 50% strength slurry of the respective anhydrous solution in demineralized water has, determined using Merck® pH indicator strips.

[3] = Peroxide number (PON) by titration with sodium thiosulphate; format: physicochemical; details: for peroxide number as a function of time: Example 2, salt solution added to Sensiva SC 50
Description: The peroxide number (PON) gives the amount peroxide in milliequivalents of active oxygen which is present in 1000 g of substance, determined in accordance with the method below. • 5.00 g of substance are weighed into a 250 ml Erlenmeyer flask with ground-glass stopper and dissolved in 30 ml of a mixture of 2 parts by volume of chloroform R and 3 parts by volume of acetic acid 98% R with shaking. […] Following the addition of 5 ml of starch solution R, the titration is continued with vigorous shaking until the blue coloration disappears (n1 ml of 0.01 N sodium thiosulphate solution). A control experiment is carried out under the same conditions (n2 ml of 0.01 N sodium thiosulphate solution). For this, at most 0.1 ml of 0.01 N sodium thiosulphate solution must be consumed.
The peroxide number is calculated as follows: […]
where m is the initial weight of the substance in grams.
The method is explained in more detail in DAB 9-Kornrnentar [German Pharmacopoeia 9 Commentary] (K. Hartke, E. Mutschler, Editor, Wissenschaftliche Verlagsgesellschaft mbH Stuttgart, 9th edition 1986).
(§1) The peroxide number of compositions of Sensiva® SC 50 and Lipacide e8G salts was compared with the stability of mixtures of Sensiva® SC 50 and other 30 salts.

[4] = Appearance of the storage bottle (neck-in effect); format: physicochemical; details: for Appearance of the bottle: Example 1, storage at room temperature
Description: as §2

Hazen colour number = format: physicochemical
[5] = Appearance of the composition; format: physicochemical
Text: n.c.=no change, d.=days, m.=months, w.=weeks, y.=years, n.d.=not detectable, cl=clear, c=colourless, kr=crystals, yl=yellowish, S.=start of the investigation.
as §1

[6] = Example 2, start of the investigation
[7] = Example 2, after storage, time not printed (line below the 2 y. 2 m. lines)

PON 2 y. 11 m. ([3]; Example 1, storage at room temperature, 2 y. 11 m., n.d.=not detectable): 25.3 milliequivalents of active oxy
PONS. [3, 6]: 10 milliequivalents of active oxy
PON ([3]; Example 2, storage 2 y. 2 m.): 5-10 milliequivalents of active oxy
PON ([3]; Example 2, storage 6 m.): 20 milliequivalents of active oxy
PON ([3]; Example 2, storage 6 w.): 25 milliequivalents of active oxy
PON ([3]; Example 2, storage 11 w.): 25 milliequivalents of active oxy
PON ([3]; Example 2, storage 4 d.): 10 milliequivalents of active oxy
PON ([3]; Example 2, storage 9 d.): 10-25 milliequivalents of active oxy
Hazen colour number (Hazen colour number; Example 1, storage at room temperature, 8 w.): <5
Hazen colour number (Hazen colour number; [7]): 0
Appearance of the bottle ([4]; 2 y. 11 m., listed as A): consider-
Appearance of the bottle ([4]; 2 y., listed as A): neck in
PE bottle ([4]; Example 2, storage 2 y. 2 m.): considerable
Appearance [5, 7]: cl c
Appearance S. [5, 6]: cl c
ppm of H2O2 ([1]; 2 m., listed as A): 2-5 ppm
ppm of H2O2 ([1]; 2 w., listed as A): 2-5 ppm
ppm of H2O2 ([1]; 2 y., listed as A): 10-25 ppm
ppm of H2O2 ([1]; 3 m., listed as A): 2-5 ppm
ppm of H2O2 ([1]; 4 m., listed as A): 5 ppm
ppm of H2O2 ([1]; 5 m., listed as A): 5 ppm
ppm of H2O2 ([1]; 6.5 m., listed as A): 5 ppm
ppm of H2O2 ([1]; 7 w., listed as A): 2-5 ppm
ppm of H2O2 ([1]; 8 w., listed as A): 2-5 ppm
ppm of H2O2 ([1]; 8.5 m., listed as A): 5 ppm
ppm of H2O2 ([1]; 11 m., listed as A): 10 ppm
ppm of H2O2 ([1]; 7 d., listed as A): 2 ppm
ppm of H2O2 ([1]; 9 d., listed as A): 2 ppm
SMILES: CCCCC(CC)COCC(O)CO (stereo not shown) [Experiment A, 3-[(2-ethylhexyl)oxy]-1,2-propanediol]
development of the peroxide content in stored preparations ([1]; Table 1, storage): chaotic development of the peroxide number

effect on stabilization of the glycerol monoalkyl ether by vitamin E ([1]; Experiments N and O): inhibit its stabilization by vitamin E
SMILES: CCCCCCCCCCCCCCCC(=O)OC[C@H](O)[C@H]1OC(=O)C(O)=C1O [ascorbyl palmitate, 6-0-palmitoyl-L-ascorbic acid]
stabilization of the glycerol monoalkyl ethers over a long period (peroxides, neck-in effect) [1]: does not stabilize the glycerol monoalkyl ethers

stabilizing effect [1]: exhibit the stabilizing effect
SMILES: CC(C)(CO)[C@@H](O)C(=O)NCCCO [dexpanthenol]
stabilization of the glycerol monoalkyl ethers over a long period (peroxides, neck-in effect) [1]: stabilize the glycerol monoalkyl ethers over a long period

stabilizing effect [1]: exhibit the stabilizing effect
SMILES: Cc1c(C)c2c(c(C)c1O)CC[C@@](C)(CCC[C@H](C)CCC[C@H](C)CCCC(C)C)O2 [vitamin E, Alpha-tocopherol]
stabilization of the glycerol monoalkyl ethers over a long period (peroxides, neck-in effect) [1]: stabilize the glycerol monoalkyl ethers over a long period

The remaining lines, values behind:

SMILES: COc1ccc(O)c(C(C)(C)C)c1 [BHA, 3-tert-butyl-4-hydroxyanisole]
stabilizing effect [1]: exhibit the stabilizing effect
stabilization of the glycerol monoalkyl ethers over a long period (peroxides, neck-in effect) [1]: stabilize the glycerol monoalkyl ethers over a long period

SMILES: Cc1cc(C(C)(C)C)c(O)c(C(C)(C)C)c1 [BHT, 2,6-di-tert-butyl-p-cresol]
stabilizing effect [1]: exhibit the stabilizing effect
stabilization of the glycerol monoalkyl ethers over a long period (peroxides, neck-in effect) [1]: stabilize the glycerol monoalkyl ethers over a long period

SMILES: CCCCC(CC)COCC(O)CO (stereo not shown) [Experiment A(Alu), 3-[(2-ethylhexyl)oxy]-1,2-propanediol]
pH ([2]; 2 m.): 3
pH ([2]; 2 w.): 3
pH ([2]; 3 w.): 3
pH ([2]; 4 w.): 3
pH ([2]; 5 w.): 3
pH ([2]; 6 w.): 3
pH ([2]; 7 w.): 3
pH ([2]; 8 w.): 3
pH ([2]; 7 d.): 3
pH ([2]; 9 d.): 3
PON S. ([3]; Example 1, start of the investigation): 0.5 milliequivalents of active oxy
Appearance of the bottle ([4]; 2 y. 11 m., listed as A(Alu)): n.c.
Appearance of the bottle ([4]; 2 y., listed as A(Alu)): n.c.
ppm of H2O2 ([1]; 1 y.): 10 ppm
ppm of H2O2 ([1]; 2 m., listed as A(Alu)): 25 ppm
ppm of H2O2 ([1]; 2 w., listed as A(Alu)): 2 ppm
ppm of H2O2 ([1]; 2 y., listed as A(Alu)): 0 ppm
ppm of H2O2 ([1]; 3 m., listed as A(Alu)): 25-50 ppm
ppm of H2O2 ([1]; 3 w.): 2-5 ppm
ppm of H2O2 ([1]; 4 m., listed as A(Alu)): 25-50 ppm
ppm of H2O2 ([1]; 4 w.): 2-5 ppm
ppm of H2O2 ([1]; 5 m., listed as A(Alu)): 50 ppm
ppm of H2O2 ([1]; 5 w.): 2-5 ppm
ppm of H2O2 ([1]; 6 w.): 2-5 ppm
ppm of H2O2 ([1]; 6.5 m., listed as A(Alu)): 50 ppm
ppm of H2O2 ([1]; 7 w., listed as A(Alu)): 5 ppm
ppm of H2O2 ([1]; 8 w., listed as A(Alu)): 5 ppm
ppm of H2O2 ([1]; 8.5 m., listed as A(Alu)): 25-50 ppm
ppm of H2O2 ([1]; 11 m., listed as A(Alu)): 10-25 ppm
ppm of H2O2 ([1]; 14 m.): 10 ppm
ppm of H2O2 ([1]; 16 m.): 10 ppm
ppm of H2O2 ([1]; 7 d., listed as A(Alu)): 0.5 ppm
ppm of H2O2 ([1]; 9 d., listed as A(Alu)): 0.5-1 ppm

SMILES: CCCCCCCC(=O)NCC(=O)O [Lipacide C8G sodium salts, N-octanoylglycine]
peroxide number as a function of time [3]: the peroxide number decreases as a function of time
neck-in effect ([4]; Example 2, salt solution added to Sensiva SC 50): the neck-in effect is avoided

SMILES: O=C([O-])CC(O)(CC(=O)[O-])C(=O)[O-].[Na+].[Na+].[Na+] [sodium citrate]
peroxide number as a function of time [3]: could not be achieved

SMILES: O=S(=O)([O-])[O-].[Na+].[Na+] [sodium sulphate]
peroxide number as a function of time [3]: could not be achieved
